Structures are written as SMILES. Where two headings read alike, the source gives them in different places.

One experiment concerns Human adipocytes. The following applies: 0.1 mM niacin, 24 hours, vs cultures without niacin. The method, then:
Human adipocytes were obtained in accordance with standard methods. In brief, preadipocytes were collected from subcutaneous adipose tissue, following collagenase treatment. The preadipocytes were plated, and allowed to differentiate for 3 weeks, to form adipocytes.
The adipocytes were then incubated, in 0.6 ml of DMEM/F-10 medium, to which 2% bovine serum albumin was added.
After 24 hours, the culture medium was analyzed for leptin, using a commercially available ELISA kit.

The test system of experiment [1] is leptin. The following applies: female apoB/CETP mice.
Protocol: Leptin levels in plasma were determined using a commercially available murine leptin radioimmunoassay. The RIA was carried out on fasting (16 h) blood samples obtained from the retroorbital plexus. The blood samples were collected and centrifuged at 2000×g for 15 minutes to secure plasma.
The subject of the next experiment is full thickness wounds. The following applies: mice, about 6 mm full thickness wounds, topical 20% lotion, 100 μl twice every day for 14 days, vs lotion without ester. The method, then:
Mice were inflicted with full thickness wounds of about 6 mm in diameter, under anesthesia (sodium phenobarbital). They then received topical application of a 20% nicotinate ester lotion, every day, for 14 days. The dosing was 100 μl for each application, with two applications every day. As a control, the lotion without the ester was used. Wound diameter was measured every day.

Experiment [2] deals with leptin. To be noted: male BALB/C mice, 4 ml/kg/mouse, vs vehicle. The method, then: The experiments described in example 2 were continued, in the experiment described in this example. Specifically, male BALB/C mice were shaved, from the scapulae to tail bases. The subject animals then received topical application of the lauryl nicotinate ester lotion, described in example 2, supra, or myristyl nicotinate ester lotion, in varying concentrations. Controls received vehicle only. The lotion was applied at a dose of 4 ml/kg/mouse.
Serum leptin levels were measured, as described, supra.

Experiment [3] concerns leptin. The following applies: transgenic mice; cited from earlier work.

Consider `O=C(O)c1cccnc1` [niacin, reference compound], for which the “increase in leptin production” value in the experiment with Human adipocytes turned out to be 62%. The “amount of circulating leptin (plasma)” value in the experiment with leptin [1] (oral, sodium salt 0.75% in drinking water, approx. 1400 mg/kg, fasting (16 h) blood) was “did increase the amount of circulating leptin”.
Turning to `CCCCCCCCCCCCOC(=O)c1cccnc1` [lauryl nicotinate ester], the “amount of circulating leptin (plasma)” value with leptin [1] (topical, 200 mg of 10% (wt/wt) lotion daily for 13 weeks, compared with oral niacin) is recorded as “surpassed it in terms of the amount of circulating leptin”. In addition, in the experiment on full thickness wounds, the “reduction of wound thickness” value was determined as 43%. For the same compound, the “increase in serum leptin levels” value in the experiment with leptin [2] (topical 10% lotion) was determined as 45%.
Regarding `Cc1cnc(C(=O)O)c[n+]1[O-]` [Acipimox], the plasma leptin levels result with leptin [3] is given as “increase plasma leptin levels”.
Take `CCCCCCCCCCCCCCOC(=O)c1cccnc1` [myristyl nicotinate ester]: the results for the “increase in serum leptin levels” value in the experiment with leptin [2] (topical 2% formulation) and with leptin [2] (topical 5% formulation) were 57% and 77%, respectively.

These data come from patent US6750234B2, “Methods for increasing leptin levels using nicotinic acid compounds” (University of Kentucky Research Foundation, priority 2001, dated 2004).
